Results: PubChem BioAssay AID1996
In brackets after ≈: the same amount, converted by molar mass.

details: buffer; pH 7.4; 200.0 µM

Structure (SMILES)	solubility kinetic [µg/mL]
COc1ccc2c(COC(=O)CNS(=O)(=O)c3ccccc3)cc(=O)oc2c1	46 (≈ 114 µM)
O=C(N1CCN(S(=O)(=O)c2ccc(Cl)cc2)CC1)n1ccnc1	52.8 (≈ 149 µM)
COc1cccc(C(=O)Nc2cc(C)on2)c1OC	34 (≈ 130 µM)
Cc1ccc(S(=O)(=O)c2c[nH]c3cc4c(cc3c2=O)OCO4)cc1	2 (≈ 5.82 µM)
CC(=O)Nc1ccc(CN2CCCN(C)CC2)cc1	29.2 (≈ 112 µM)
CS(=O)(=O)N(CC(=O)NCC1CCCO1)c1cccc(Cl)c1 (centres undefined)	> 52
O=C(COc1ccc(F)cc1)Nc1nc2c(s1)CCCC2	2.6 (≈ 8.49 µM)
C#CC(C)OC(=O)Nc1cnccc1C(F)(F)F (centres undefined)	36 (≈ 139 µM)
Cn1c(-c2nonc2N)nc2ccccc21	4.3 (≈ 20 µM)
O=C(Nc1cc(Cl)ccc1Cl)C1CC(=O)N(c2ccccc2)C1 (centres undefined)	1.7 (≈ 4.87 µM)
C=CCOc1ccc(/C=C2/C(=O)ON=C2C)cc1OCC	28.3 (≈ 98.5 µM)
O=C(Nc1ccccc1)Nc1ccc2c(c1)CCC2	0.4 (≈ 1.59 µM)
COc1cc(/C=C2\SC(=O)NC2=O)ccc1OCC(=O)N1CCOCC1	> 56.8
CN(CCO)c1cc(N(C)CCO)c([N+](=O)[O-])cc1[N+](=O)[O-]	42.1 (≈ 134 µM)
CCc1ccc(/C=C\C(=O)N2CCCC2)cc1	28.3 (≈ 123 µM)
Cc1ccc(N2C(=O)CC(N3CCc4ccccc43)C2=O)cc1Cl (centres undefined)	< 0.4
O=C(COC(=O)C1CCCCC1)Nc1cccc(F)c1	> 41.9
O=[N+]([O-])c1cccc(CSc2cccc[n+]2[O-])c1	> 39.3
CC(OC(=O)Cn1ccccc1=O)C(=O)Nc1cc(Cl)cc(Cl)c1 (centres undefined)	> 55.4
CC1NC(=O)NC1CCCCCC(=O)Nc1ccc(F)cc1 (centres undefined)	> 46.1
Cn1c(/C=C/c2ccc(Cl)cc2)c([N+](=O)[O-])c(=O)n(C)c1=O	5 (≈ 15.5 µM)
CCSC1=NCCN1C(=O)c1c(-c2ccccc2Cl)noc1C	> 52.5
Cc1nc([N+](=O)[O-])cn1Cc1cccc2ccccc12	2.5 (≈ 9.35 µM)
O=C(CN1CCCCCCC1)Nc1cccc(Cl)c1Cl	< 0.3
O=C(NCC(c1ccco1)N1CCCCC1)c1ccc([N+](=O)[O-])s1 (centres undefined)	> 52.4

Structure (SMILES)	solubility kinetic [µg/mL]
O=C(NC(=O)c1ccccc1)OCCN1C(=O)c2ccccc2C1=O	> 50.7
COc1ccc2oc(=O)cc(CN3CCOCC3)c2c1	39.5 (≈ 143 µM)
O=C(COC(=O)c1cc(S(=O)(=O)N2CCCCC2)ccc1Cl)NC1CCS(=O)(=O)C1 (centres undefined)	> 71.8
O=C(Nc1ccccc1C(=O)Nc1ccccc1)c1ccccc1F	< 0.4
CCCN(CC1CC1)C(=O)COC(=O)c1ccc(C)cc1O	> 45.8
Cc1cccc(N2CCc3c2nc2ccc(Br)cc2c3N)c1.Cl	0.6
CCOc1ccccc1CNCCNCC(C)O.Cl (centres undefined)	> 48.8
O=C(O)C1Cc2ccccc2CN1C(=O)c1ccco1 (centres undefined)	30.7 (≈ 113 µM)
CNc1ccc([N+](=O)[O-])cc1-c1nc2ccccc2[nH]c1=O	0.2 (≈ 0.675 µM)
Cc1ccc(S(=O)(=O)N2CCN(C(=O)CN3C(=O)NC(C)(c4ccc(Cl)cc4)C3=O)CC2)c(C)c1 (centres undefined)	3.3 (≈ 6.36 µM)
Cn1c(N)c(C(=O)COC(=O)c2cccc(S(=O)(=O)N3CCOCC3)c2)c(=O)n(C)c1=O	20 (≈ 42.9 µM)
COc1ccc(/C=C/C(=O)O)cc1S(=O)(=O)N1CCC(Cc2ccccc2)CC1	61.6 (≈ 148 µM)
COc1cccc(NC(=O)COC(=O)C2C3CC4OC(=O)C2C4C3)c1 (centres undefined)	49.5 (≈ 143 µM)
COc1cc(CCC(=O)NCc2ccc(F)cc2)cc(OC)c1OC	> 52.1
Cc1c(Cl)cccc1-n1cnc(=O)c2ccccc21	> 40.6
O=C(Nc1ccc2c(c1)CCC2)c1cc(F)cc(F)c1	3.7 (≈ 13.5 µM)
O=c1c2sc3ccccc3c2[nH]c(=S)n1CCN1CCOCC1	49.9 (≈ 144 µM)
CCCc1cc(=O)[nH]c(SCC(=O)Nc2ccc(N3CCCCC3)cc2)n1	16.6 (≈ 42.9 µM)
O=S(=O)(c1ccc(F)cc1)N1CCCC1c1cccnc1 (centres undefined)	> 46
CCCCNc1nc2cccnc2s1	30.4 (≈ 147 µM)
O=C(O)Cc1ccc2c(c1)N(S(=O)(=O)c1cccs1)CC(C(=O)O)O2 (centres undefined)	> 57.5
CC1CCCN(C2(O)C(=O)Nc3ccc(Cl)cc32)C1 (centres undefined)	> 42.1
Nc1ncnc(Sc2ncccn2)c1[N+](=O)[O-]	> 37.5
CCN(CC)S(=O)(=O)c1ccc(N2CCCC2)c(NC(=O)c2ccc([N+](=O)[O-])o2)c1	49.4 (≈ 113 µM)
O=C(COC(=O)CNC(=O)c1ccc(F)cc1)NC1CCCc2ccccc21 (centres undefined)	> 57.7

Structure (SMILES)	solubility kinetic [µg/mL]
COc1cc2nc(Cl)nc(N3CCOCC3)c2cc1OC	13.1 (≈ 42.3 µM)
OCc1ccccc1CN1CCCCCC1	28.8 (≈ 131 µM)
CCn1cc(C(=O)OC)c(=O)c2ccc(C)nc21	36.4 (≈ 148 µM)
CC(C)NC(=O)NC(=O)COC(=O)c1cc[n+]([O-])cc1	> 42.2
O=C(Nc1c(-c2ccccc2)nc2ccccn12)c1cccc(F)c1	1.4 (≈ 4.23 µM)
CC(=O)C(Cc1ccccc1)NC(=O)CN1CCc2ccccc2C1 (centres undefined)	> 50.5
COc1ccc(-c2nc3c4ccccc4ccn3c2CN2CCCCC2)cc1	1.7 (≈ 4.58 µM)
O=C(O)C1C2C=CC(C2)C1C(=O)Nc1ccccc1Br (centres undefined)	> 50.4
Cc1ccc(NC(=O)CCCN2C(=S)NC(C)(C)CC2C)cc1 (centres undefined)	45.5 (≈ 136 µM)
O=C(Cn1cccc1C(=O)c1ccccc1)NCc1cccc(Cl)c1	< 0.4
O=C(O)c1ccc(/C=N/O)cc1	> 24.8
COC(=O)C1CCN(C(=O)c2cc(=O)[nH]c3ccccc23)CC1	> 47.2
O=C(CC1SC(N2CCOCC2)=NC1=O)Nc1ccccc1F (centres undefined)	> 50.6
O=C(O)CC/C(=N\NC(=O)CNC(=O)/C=C/c1ccccc1)c1ccccc1	> 56.9
CCC(=O)NC1CCN(C(=S)NC)CC1	> 34.4
O=C(CN1CCC(NC(=O)Nc2ccccc2)CC1)Nc1ccccc1F	17.5 (≈ 47.2 µM)
Cc1ccc(OCCSc2nc3ncnc(N)c3[nH]2)cc1	3.8 (≈ 12.6 µM)
CCOc1ccc(C(=O)OCC(=O)NCC2CCCO2)cc1 (centres undefined)	> 46.1
O=C1C2C3C=CC(CC3)C2C(=O)N1c1ccc(Cl)cc1Cl (centres undefined)	9.7 (≈ 30.1 µM)
O=C(CN1CCCC1)Nc1ccc([N+](=O)[O-])cc1Cl	36.2 (≈ 128 µM)
CC(C)CCNC(=O)C1(c2cccs2)CCOCC1	> 42.2
CC(OC(=O)c1ccccc1)C(=O)NCc1ccco1 (centres undefined)	> 41
CC(C)(C)C(=O)Cn1ncc(N2CCOCC2)c(Cl)c1=O	> 47.1

Second part, the compound after the results:

solubility kinetic [µg/mL]	Structure (SMILES)
7.7 (≈ 29.4 µM)	CCOc1ccc(CC(=O)Nc2nccs2)cc1
44.6 (≈ 146 µM)	COc1ccccc1C(=O)COC(=O)c1ccc(Cl)nc1
> 46.1	CC(C)C(=O)Nc1ccccc1-c1nc2ccccc2[nH]c1=O
6.1 (≈ 20.5 µM)	O=C(Nc1ccc(SC(F)F)cc1)c1ccccc1F
31 (≈ 110 µM)	O=C(Cc1ccc(Cl)cc1Cl)Nc1ccncc1
3.1 (≈ 9.59 µM)	Cc1cccc(OCC(=O)NCc2nc(-c3ccccc3)no2)c1
< 0.2	CC(C)(C)c1ccc(NC(=O)Nc2ccc3ccccc3n2)cc1
23.7 (≈ 78.6 µM)	COc1ccc(C(=O)NCCSc2ccccc2C)cc1
> 39.2	Cc1ccc(S(=O)(=O)CCc2ccncc2)cc1
> 31.5	c1ccc2c(c1)CCNC2c1ccncc1 (centres undefined)
48.2	Cn1c(C2=C(O)CN(Cc3ccccc3)C2=N)[n+](C)c2ccccc21.[Cl-]
5.8 (≈ 14.8 µM)	COc1ccc(CNC(=O)COC(=O)Cc2ccc(Br)cc2)cc1
> 43.9	COC(=O)c1ccccc1NC(=O)c1ccc[nH+]c1.[Cl-]
0.7 (≈ 1.99 µM)	CCn1c(=O)c(C(=O)NCc2ccccc2OC)c(O)c2ccccc21
14.5 (≈ 47.2 µM)	COc1cccc(C(=O)Nc2cccc3ccccc23)c1OC
> 48	CCOP(=O)(c1ccc(N(C)C)cc1)C(O)c1ccncc1 (centres undefined)
41.9 (≈ 148 µM)	NC(=O)COC(=O)C1c2ccccc2Oc2ccccc21
27.5 (≈ 114 µM)	CNC(=O)Nc1cccc(-c2ccnc(C)n2)c1
51.3 (≈ 129 µM)	CS(=O)(=O)N(CC(=O)Nc1cccc(Br)c1)Cc1ccccc1
0.6 (≈ 1.67 µM)	CCOc1ccccc1Oc1nc(-c2ccccc2O)nc2ccccc12
2.8 (≈ 11.1 µM)	Cc1ccc(C(=O)CNc2ccc(C)cc2C)cc1
46.7 (≈ 140 µM)	Cc1cccc(NC(=S)N(CCN(C)C)Cc2cccs2)c1
> 32	CC(=O)c1ccc(-n2ccc(=O)cc2)cc1

solubility kinetic [µg/mL]	Structure (SMILES)
12.6 (≈ 40.1 µM)	CC1Oc2ccccc2N(CC(=O)Nc2ccc(F)cc2)C1=O (centres undefined)
> 45.9	Cc1cccc(Cl)c1NC(=S)NCCc1ccccn1
0.9 (≈ 2.79 µM)	COc1cccc(NC(=O)Nc2ccc3nc(C)c(C)nc3c2)c1
2.2 (≈ 6.72 µM)	O=C(NCc1ccccc1)c1ccccc1-c1nc2ccccc2[nH]1
22.2 (≈ 61.9 µM)	CCOC(=O)c1c(C)[nH]c(NC(=O)Nc2ccc(NC(C)=O)cc2)c1C
> 46.6	CCc1ccccc1NC(=O)CC(=O)Nc1ccccc1CC
> 44.6	CC(=O)NC(CC(=O)NCc1ccncc1)c1ccccc1 (centres undefined)
5.8 (≈ 17.7 µM)	Cc1cccc(C(=O)OCC(=O)NC(=O)Cc2ccccc2)c1O
> 49.2	CN(C(=O)C(Cl)Cl)c1ccc(OC(=O)c2ccco2)cc1
< 0.3	O=C(Nc1ccccc1)Nc1ccc2ccccc2c1
20.6 (≈ 68 µM)	Cc1ccc(NC(=O)CN(C)Cc2ccc(Cl)cc2)cc1
> 53.9	COC(=O)C1CN(C(=O)C(C)Oc2ccccc2F)c2ccccc2O1 (centres undefined)
> 47	CCOc1ccccc1NC(=O)Nc1cccc(NC(C)=O)c1
> 44.6	O=C(O)/C=C/C(=O)Nc1ccc(OCc2ccccc2)cc1
0.8 (≈ 2.36 µM)	O=C(Nc1ccc(O)cc1)c1ccc(NC(=O)c2cccs2)cc1
9.7 (≈ 30.3 µM)	COc1ccc(NC(=O)c2cccc(-c3ccc(O)cc3)c2)cn1
1 (≈ 3.08 µM)	CCOc1ccc(NC(=O)/C(C=Nc2ccccc2)=C(\C)O)cc1
0.7 (≈ 2.8 µM)	O=[N+]([O-])c1ccc(Sc2ccc(F)cc2)nc1
2.3 (≈ 7.91 µM)	S=C(NCc1ccccc1)NCc1ccc(Cl)cc1
< 0.2	CC(C)c1ccc(Nc2c([N+](=O)[O-])c(=O)n(C)c3ccccc23)cc1
> 45.4	COCCSc1ccccc1C(=O)NCc1cccnc1
37.2 (≈ 143 µM)	CC(=O)c1ccc(NC(=O)Cc2cccs2)cc1
> 45.2	O=C(CSc1ccccc1)Nc1ccc2c(c1)OCCO2
